pIC50: −log10 of the molar value.
Key:
HeLa S3 cells = experiment: Growth Inhibition Test on HeLa S3 Cells; format: cell-based; settings: Homo sapiens, 1 hour exposure, then 72 hours incubation, Neutral Red, 550 nm
Procedure: Growth Inhibition Test on HeLa S3 Cells
HeLa S3 cells were suspended in a MEM medium containing 10% fetal calf serum and 2 mM glutamine at a concentration of 3×10^4 cells/ml, and 0.1 ml of the cell suspension was put into each well of a 96-well microtiter plate.
After culturing at 37° C. overnight in a carbon dioxide gas incubator, 0.05 ml of a test sample appropriately diluted with the medium was added to each well. The cells were further cultured for one hour in the carbon dioxide gas incubator and the culture supernatant was removed. The residue was washed once with a phosphate buffer saline [PBS(-)] and 0.1 ml of a fresh medium was added to each well, and the cells were further incubated at 37° C. for 72 hours in the carbon dioxide gas incubator. After removal of the supernatant, 0.1 ml of a culture medium containing 0.02% Neutral Red was added to each well, and the cells were further incubated at 37° C. for one hour in the carbon dioxide gas incubator to stain the cells. After removal of the culture supernatant, each well was washed once with a physiological saline, and the dye was extracted with 0.001 N HCl/30% methanol. Absorbance of the extract at 550 nm was measured with a microplate reader. The cell growth inhibition percentage was calculated according to the following formula from the absorbance of the extract of the cells treated with the test compound in various concentrations and that of intact cells. [formula]
From the cell growth inhibition percentage thus obtained, the concentration of the test compound which inhibits cell growth by 50% (IC50) was determined.

Sarcoma 180 Solid Tumor = experiment: Anti-tumor Activity to Sarcoma 180 Solid Tumor; format: in vivo; settings: Mus musculus, Sarcoma-180, iv, 168 h; dose of showing T/C=0.5 (tumor volume), male ddY mice, single i.v. 24 hours after s.c. implantation, measured at 7 days
Procedure: Anti-tumor Activity to Sarcoma 180 Solid Tumor
5×10^6 Sarcoma 180 cells were abdominally implanted into a ddY mouse and the cells were collected from the ascites of the mouse 7 days after the implantation. The cells were washed once with a sterilized physiological saline solution and then suspended in a sterilized physiological saline solution to prepare a cell suspension of 5×10^7 cells/ml. 0.1 ml of the cell suspension was subcutaneously implated into the right axillary space of each of male ddY mice weighing 20±2 g.
A test compound was dissolved in a physiological saline solution or a polyoxyethylene sorbitan monolaurate-containing physiological saline solution, and 0.1 to 0.2 ml of the solution was intravenously injected to five mice as one group 24 hours after the implatation of the tumor cells.
The anti-tumor activity of the test compound was determined by measuring the major diameter (a) and the minor diameter (b) of the tumor 7 days after the implantation of tumor cells, and the value of (a×b^2/ 2), which corresponds to the volume of the tumor, was calculated. The intended anti-tumor activity is represented by a ratio of T/C, in which C indicates the tumor volume of mice of the control group to which a physiological saline solution instead of the test compound was administered and T indicates the tumor volume of mice of the test group to which the test compound was administered. T/C at each dose given was plotted in a graph in which T/C is shown by an ordinary scale on the vertical axis and a dose is shown by a logarithmic scale on the horizontal axis. The relation between the dose and T/C was determined to be a straight line by the least-squares method. From the regression formula of the straight line thus obtained, the dose of showing T/C=0.5 is calculated to give ED50.

[1] = Acute Toxicity (single intravenous injection); settings: mouse, in vivo, ddY mice, single i.v., 14 days observation, Behrens Kaerber's method
Procedure: A test compound was intravenously injected once to five ddY mice as one group. […] LD50 was calculated from the death rate of each group according to the Behrens Kaerber's method.

With `CO[C@@]12[C@H](COC(N)=O)C3=C(C(=O)C(CSc4ccccn4)=C(N)C3=O)N1C[C@@H]1N[C@@H]12` [Compound 1, 6-Demethyl-6-[(2-pyridylthio)methyl]mitomycin C] the pIC50 (HeLa S3 cells) was 5.74.
In the case of `CO[C@@]12[C@H](COC(N)=O)C3=C(C(=O)C(CSc4ncccc4O)=C(N)C3=O)N1C[C@@H]1N[C@@H]12` [Compound 2, 6-Demethyl-6-[[(3-hydroxypyridin-2-yl)thio]methyl]mitomycin C], the ED50 (Sarcoma 180 Solid Tumor) was 3.7 mg/kg, the pIC50 (HeLa S3 cells) was 6.72 and the LD50 at 336 h [1] was 15 mg/kg.
Work on `CO[C@@]12[C@H](COC(N)=O)C3=C(C(=O)C(CSc4ncccn4)=C(N)C3=O)N1C[C@@H]1N[C@@H]12` [Compound 3, 6-Demethyl-6-[(2-pyrimidinylthio)methyl]mitomycin C] yielded an ED50 (Sarcoma 180 Solid Tumor) of 8.9 mg/kg, a pIC50 (HeLa S3 cells) of 6.02 and an LD50 at 336 h [1] of 26 mg/kg.
`CO[C@@]12[C@H](COC(N)=O)C3=C(C(=O)C(CSc4nc(C)cc(C)n4)=C(N)C3=O)N1C[C@@H]1N[C@@H]12` [Compound 4, 6-Demethyl-6-[[(4,6-dimethylpyrimidin-2-yl)thio]methyl]mitomycin C] gave a pIC50 (HeLa S3 cells) of 5.96.
Compound `CO[C@@]12[C@H](COC(N)=O)C3=C(C(=O)C(CSC4=NCCS4)=C(N)C3=O)N1C[C@@H]1N[C@@H]12` [Compound 11, 6-Demethyl-6-[(2-thiazolinylthio)methyl]mitomycin C] has an ED50 (Sarcoma 180 Solid Tumor) of 5.9 mg/kg, a pIC50 (HeLa S3 cells) of 6.09 and an LD50 at 336 h [1] of 9.4 mg/kg.
For `CO[C@@]12[C@H](COC(N)=O)C3=C(C(=O)C(CSc4nccs4)=C(N)C3=O)N1C[C@@H]1N[C@@H]12` [Compound 12, 6-Demethyl-6-[(2-thiazolylthio)methyl]mitomycin C], the pIC50 (HeLa S3 cells) was 5.85.
With `CO[C@@]12[C@H](COC(N)=O)C3=C(C(=O)C(CSc4nc5ccccc5s4)=C(N)C3=O)N1C[C@@H]1N[C@@H]12` [Compound 13, 6-Demethyl-6-[(2-benzothiazolylthio)methyl]mitomyc-in C] the ED50 (Sarcoma 180 Solid Tumor) was 36 mg/kg, the pIC50 (HeLa S3 cells) was 6.15 and the LD50 at 336 h [1] was > 50 mg/kg.
For `CO[C@@]12[C@H](COC(N)=O)C3=C(C(=O)C(CS[C@@H]4O[C@H](COC(C)=O)[C@@H](OC(C)=O)[C@H](OC(C)=O)[C@H]4OC(C)=O)=C(N)C3=O)N1C[C@@H]1N[C@@H]12` [Compound 16, 6-Demethyl-6-[[(2,3,4,6-tetra-O-acetyl-β-D-glucopyranosyl)thio]methyl]mitomycin C], the ED50 (Sarcoma 180 Solid Tumor) was 24 mg/kg, the pIC50 (HeLa S3 cells) was 5.96 and the LD50 at 336 h [1] was 38 mg/kg.
